From US12338243B2, “P2X7 modulators” (JANSSEN PHARMACEUTICA NV, priority 2014, dated 2025)
Like-named read-outs stand apart in the source and are kept apart here.

How the values were obtained:
P2X7 [1] = biological target: T1, P2X7 (Homo sapiens, UniProt Q99572); assay: Ca2+ flux (FLIPR) in 1321N1 cells expressing recombinant human P2X7 channel; format: cell-based; parameters: expressed in transfected cells; host or cells: 1321N1 cells; conditions: 250 μM BzATP
T1 sequence (Q99572 1-595): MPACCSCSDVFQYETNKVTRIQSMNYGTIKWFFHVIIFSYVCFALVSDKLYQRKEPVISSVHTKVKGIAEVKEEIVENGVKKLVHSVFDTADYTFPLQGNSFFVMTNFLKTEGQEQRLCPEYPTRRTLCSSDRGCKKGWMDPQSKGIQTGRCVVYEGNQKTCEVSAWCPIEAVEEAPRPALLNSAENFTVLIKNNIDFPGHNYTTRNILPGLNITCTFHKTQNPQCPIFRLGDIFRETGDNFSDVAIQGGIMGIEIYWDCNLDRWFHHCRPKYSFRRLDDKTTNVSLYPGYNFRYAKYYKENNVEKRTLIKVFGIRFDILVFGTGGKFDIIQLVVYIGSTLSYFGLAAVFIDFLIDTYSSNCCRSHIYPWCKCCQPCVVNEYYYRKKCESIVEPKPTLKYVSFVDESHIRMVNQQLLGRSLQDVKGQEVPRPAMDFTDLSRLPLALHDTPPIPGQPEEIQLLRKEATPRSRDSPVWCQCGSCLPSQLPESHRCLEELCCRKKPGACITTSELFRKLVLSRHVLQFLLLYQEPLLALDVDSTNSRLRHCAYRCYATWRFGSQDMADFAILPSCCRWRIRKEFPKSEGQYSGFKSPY
Summary of the method: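 1321N1 cells expressing recombinant human P2X7, loaded 60 min with Calcium-4 dye in HEPES buffer pH 7.40 (1 mM CaCl2, 1 mM MgCl2), preincubated 30 min with compounds. Fluorescence change recorded 180 seconds after agonist addition.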

rat P2X7 [2] = biological target: T2, rat P2X7 (Rattus norvegicus, UniProt Q64663); assay: Ca2+ flux (FLIPR) in 1321N1 cells expressing recombinant rat P2X7 channel; conditions: 250 μM BzATP
T2 sequence (Q64663 1-595): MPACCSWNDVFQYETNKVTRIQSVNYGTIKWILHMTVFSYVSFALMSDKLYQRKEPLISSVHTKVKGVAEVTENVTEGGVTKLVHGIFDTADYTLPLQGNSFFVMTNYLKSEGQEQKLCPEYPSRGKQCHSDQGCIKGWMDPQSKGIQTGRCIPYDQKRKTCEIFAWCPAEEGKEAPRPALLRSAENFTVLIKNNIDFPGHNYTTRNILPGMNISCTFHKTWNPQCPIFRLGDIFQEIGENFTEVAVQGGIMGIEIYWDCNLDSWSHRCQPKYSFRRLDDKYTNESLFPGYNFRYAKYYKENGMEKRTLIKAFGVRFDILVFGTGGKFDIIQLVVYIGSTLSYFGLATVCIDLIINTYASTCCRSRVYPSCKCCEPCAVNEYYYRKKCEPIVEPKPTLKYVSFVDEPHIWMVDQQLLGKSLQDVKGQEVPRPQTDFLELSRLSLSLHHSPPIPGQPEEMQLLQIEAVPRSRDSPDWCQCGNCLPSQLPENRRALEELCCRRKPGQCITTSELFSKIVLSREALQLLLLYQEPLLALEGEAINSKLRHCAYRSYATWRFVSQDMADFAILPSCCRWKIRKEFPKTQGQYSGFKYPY
Description: (§1) P2X7 Antagonism in Recombinant Human P2X7 Cells or Recombinant Rat P2X7 Cells: (a) Ca^2+ Flux and (b) Radioligand Binding
(a) Ca^2+ flux: 1321N1 cells expressing the recombinant human or rat P2X7 channel was cultured in HyQ DME/(HyClone/Dulbecco's Modified Eagle Medium) high glucose supplemented with 10% Fetal Bovine Serum (FBS) and appropriate selection marker. Cells were seeded at a density of 25000 cells/well (96-well clear bottom black walled plates) in 100 μl volume/well. On the day of the experiment, cell plates were washed with assay buffer, containing (in mM): 130 NaCl, 2 KCl, 1 CaCl2), 1 MgCl2, 10 HEPES, 5 glucose; pH 7.40 and 300 mOs. After the wash, cells were loaded with the Calcium-4 dye (Molecular Device) and incubated in the dark for 60 minutes. Test compounds were prepared at 250× the test concentration in neat DMSO. Intermediate 96-well compound plates were prepared by transferring 1.2 μL of the compound into 300 μL of assay buffer. A further 3× dilution occurred when transferring 50 μL/well of the compound plate to 100 μL/well in the cell plate. Cells were incubated with test compounds and dye for 30 minutes. […] The fluorescence change was measured 180 seconds after adding the agonist.

rat P2X7 [3] = biological target: T2, rat P2X7; assay: Radioligand binding, rat P2X7-1321N1 cell membranes, tritiated A-804598
Description: as §1

P2X7 [4] = biological target: T1, P2X7; assay: Radioligand binding, human P2X7-1321N1 cell membranes, tritiated A-804598
Description: as §1

P2X7 [5] = biological target: T1, P2X7; assay: P2X7 antagonism in human PBMCs (IL-1β release, ELISA); format: cell-based; parameters: PBMCs were isolated from blood using a Ficoll density gradient technique; endogenous in cells; host or cells: human PBMCs / human whole blood from donors; conditions: LPS 30 ng/ml + 0.5 mM Bz-ATP, compound 10 μM
Description: P2X7 Antagonism in Human Peripheral Blood Mononuclear Cells (PBMCs) and Human Whole Blood.
Human blood was collected using a blood donor program. PBMCs were isolated from blood using a Ficoll density gradient technique. Briefly, blood was laid on Ficoll solution and centrifuged at RT for 20 minutes at 2000 rpm. The buffy layer (between red blood cells and plasma) was carefully collected by aspiration, washed with PBS and centrifuged again at 1500 rpm for 15 minutes. The resulting cell pellet was washed and plated on 96 well-plates for experiments. For the Human Whole Blood experiments, 150 μl of human blood was platted on 96 well-plates. Lipopolysaccharide (LPS) (30 ng/ml) was added to each well and incubated for 1 hour. Test compounds were then added and incubated for 30 minutes. The P2X7 agonist, 2′(3′)-O-(4-benzoylbenzoyl) adenosine 5′ triphosphate (Bz-ATP) was then added at a final concentration of 0.5 mM (PBMC) or 1 mM (blood). Cells were incubated for an additional 1.5 hours. At that point, supernatant was collected and stored for IL-1β assay using manufacturer's protocol for enzyme-linked immunosorbent assay (ELISA). Data was expressed as percent control, where control is defined as the difference in IL-1β release in LPS+Bz-ATP samples and LPS only samples. Data was plotted as response (% control) versus concentration to generate IC50 values. […] Data are analyzed and graphed on Graphpad Prism 5. For analysis, each concentration point is averaged from triplicate values and the averaged values are plotted on Graphpad Prism. The IC50 for each compound is then uploaded into 3DX.

Row | IC50 (P2X7 [1]) [nM] | IC50 (rat P2X7 [2]; FLIPR (rat) IC50 (μM)) [µM] | Ki (rat P2X7 [3]) [nM] | Ki (P2X7 [4]) [nM] | PBMC 10 μM (% control) (P2X7 [5]) | IC50 (rat P2X7 [2]; read-out: FLIPR (rat) IC50) [µM] | Structure (SMILES)
1 | 8.1 | 0.0178 | 6.3 | 15.8 | – | – | O=C(c1cccc(C(F)(F)F)c1Cl)N1CCn2c(C3CCC3)nnc2[C@H]1c1ccccc1 [Example 93, (R)-(2-chloro-3-(trifluoromethyl)phenyl)(3-cyclobutyl-8-phenyl-5,6-dihydro-[1,2,4]triazolo[4,3-a]pyrazin-7(8H)-yl)methanone]
2 | 2.7 | 0.0269 | 2 | 7.9 | – | – | Cc1nnc2n1CCN(C(=O)c1cccc(C(F)(F)F)c1Cl)[C@H]2c1ccccc1 [Example 66, (S)-(2-chloro-3-(trifluoromethyl)phenyl)(3-methyl-8-phenyl-5,6-dihydro-[1,2,4]triazolo[4,3-a]pyrazin-7(8H)-yl)methanone]
3 | – | – | – | – | 102.0 | – | O=C(c1ccnc(C(F)(F)F)c1Cl)N1CCn2c(nnc2C(F)(F)F)C1c1ccccc1 (single isomer, unassigned) [Example 100, (S*)-(3-chloro-2-(trifluoromethyl)pyridin-4-yl)(8-phenyl-3-(trifluoromethyl)-5,6-dihydro-[1,2,4]triazolo[4,3-a]pyrazin-7(8H)-yl)methanone]
4 | 6.9 | 0.0077 | 4 | 12.6 | – | – | C[C@H]1Cn2c(nnc2-c2ccc(F)cn2)CN1C(=O)c1cccc(C(F)(F)F)c1Cl [Example 70, (S)-(2-chloro-3-(trifluoromethyl)phenyl)(3-(5-fluoropyridin-2-yl)-6-methyl-5,6-dihydro-[1,2,4]triazolo[4,3-a]pyrazin-7(8H)-yl)methanone]
5 | 3.4 | 0.441 | 16.6 | 7.9 | – | – | O=C(c1cccc(Cl)c1Cl)N1CCn2c(C(F)F)nnc2[C@H]1c1ccccc1 [Example 110, (R)-(2,3-dichlorophenyl)(3-(difluoromethyl)-8-phenyl-5,6-dihydro-[1,2,4]triazolo[4,3-a]pyrazin-7(8H)-yl)methanone]
6 | 52.9 | 0.542 | 25.1 | 28.8 | – | – | O=C(c1cccc(C(F)(F)F)c1Cl)N1CCn2c(nnc2C(F)(F)F)C1c1ccccc1 (racemic) [Example 75, (±)-(2-chloro-3-(trifluoromethyl)phenyl)(8-phenyl-3-(trifluoromethyl)-5,6-dihydro-[1,2,4]triazolo[4,3-a]pyrazin-7(8H)-yl)methanone]
7 | 8.6 | 0.0816 | 10 | 5.8 | – | – | O=C(c1cccc(C(F)(F)F)c1Cl)N1CCn2c(C(F)F)nnc2[C@H]1c1ccccc1 [Example 108, (R)-(2-chloro-3-(trifluoromethyl)phenyl)(3-(difluoromethyl)-8-phenyl-5,6-dihydro-[1,2,4]triazolo[4,3-a]pyrazin-7(8H)-yl)methanone]
8 | 10.5 | 0.488 | 29.5 | 10 | – | – | O=C(c1cccc(Cl)c1Cl)N1CCn2c(nnc2C(F)(F)F)[C@H]1c1ccccc1 [Example 102, (R)-(2,3-dichlorophenyl)(8-phenyl-3-(trifluoromethyl)-5,6-dihydro-[1,2,4]triazolo[4,3-a]pyrazin-7(8H)-yl)methanone]
9 | 10.2 | 0.166 | 25.1 | 20 | – | – | CC(C)c1nnc2n1CCN(C(=O)c1cccc(C(F)(F)F)c1Cl)[C@@H]2c1ccccc1 [Example 88, (R)-(2-chloro-3-(trifluoromethyl)phenyl)(3-isopropyl-8-phenyl-5,6-dihydro-[1,2,4]triazolo[4,3-a]pyrazin-7(8H)-yl)methanone]
10 | 7.8 | 0.0428 | 4.7 | 12.6 | – | – | O=C(c1cccc(C(F)(F)F)c1Cl)N1CCn2c(nnc2C(F)(F)F)[C@H]1c1ccccc1 [Example 97, (R)-(2-chloro-3-(trifluoromethyl)phenyl)(8-phenyl-3-(trifluoromethyl)-5,6-dihydro-[1,2,4]triazolo[4,3-a]pyrazin-7(8H)-yl)methanone]
11 | 9.7 | 0.211 | – | 31.6 | 8.9 | – | O=C(c1ccc(F)c(C(F)(F)F)c1Cl)N1CCn2c(nnc2C(F)(F)F)C1c1ccccc1 (single isomer, unassigned) [Example 95, (R*)-(2-chloro-4-fluoro-3-(trifluoromethyl)phenyl)(8-phenyl-3-(trifluoromethyl)-5,6-dihydro-[1,2,4]triazolo[4,3-a]pyrazin-7(8H)-yl)methanone]
12 | 4890 | > 10 | – | – | 43.6 | – | O=C(c1ccc(F)c(C(F)(F)F)c1Cl)N1CCn2c(nnc2C(F)(F)F)C1c1ccccc1 (single isomer, unassigned) [Example 96, (S*)-(2-chloro-4-fluoro-3-(trifluoromethyl)phenyl)(8-phenyl-3-(trifluoromethyl)-5,6-dihydro-[1,2,4]triazolo[4,3-a]pyrazin-7(8H)-yl)methanone]
13 | 9930 | 7.67 | 56.2 | – | – | – | C[C@H]1Cn2c(nnc2-c2ccccc2F)CN1C(=O)c1cccc(Cl)c1Cl [Example 38, (S)-(2,3-dichlorophenyl)(3-(2-fluorophenyl)-6-methyl-5,6-dihydro-[1,2,4]triazolo[4,3-a]pyrazin-7(8H)-yl)methanone]
14 | 2.3 | – | 10 | 12.6 | – | 0.0585 | CCc1nnc2n1CCN(C(=O)c1cccc(C(F)(F)F)c1Cl)[C@@H]2c1ccccc1 [Example 86, (R)-(2-chloro-3-(trifluoromethyl)phenyl)(3-ethyl-8-phenyl-5,6-dihydro-[1,2,4]triazolo[4,3-a]pyrazin-7(8H)-yl)methanone]
15 | 6.7 | 0.0168 | 5 | 10 | – | – | O=C(c1cccc(C(F)(F)F)c1Cl)N1CCn2c(C3CC3)nnc2[C@@H]1c1ccccc1 [Example 76, (S)-(2-chloro-3-(trifluoromethyl)phenyl)(3-cyclopropyl-8-phenyl-5,6-dihydro-[1,2,4]triazolo[4,3-a]pyrazin-7(8H)-yl)methanone]
16 | 11.3 | – | 8.9 | 50.1 | – | 0.027 | CC(C)(C)c1nnc2n1CCN(C(=O)c1cccc(C(F)(F)F)c1Cl)[C@@H]2c1ccccc1 [Example 81, (R)-(3-(tert-butyl)-8-phenyl-5,6-dihydro-[1,2,4]triazolo[4,3-a]pyrazin-7(8H)-yl)(2-chloro-3-(trifluoromethyl)phenyl)methanone]
